Where a name gives a salt, the structure may show the parent alone. Read-outs that look alike come from different tables or passages of the source.

In this test the test system is LMP1 expression in Kem I cells. Kind of test: microbe, parasite or virus in culture. The class given is cell-based, EBV. The following applies: for fold induction at 2.5 µM / fold induction at 1 µM: human gammaherpesvirus 4, 48 h.
[1] abbreviates: read-out: Average LMP1 Fold Increase, Kem I cells, 2.5 uM, 48 hours, average of replicates 1 and 2.
Setting [2] is: read-out: Replicate 1-LMP1 Fold Increase, Kem I cells, 2.5 uM, 48 hours, fold change in LMP1 transcript vs vehicle.
Setting [3] is: read-out: Replicate 2-LMP1 Fold Increase, Kem I cells, 2.5 uM, 48 hours, fold change in LMP1 transcript vs vehicle.
Setting [4] is: Kem I cells, 2.5 uM, 48 hours, average of replicates 1 and 2.
The mark [5] stands for this setting: Kem I cells, 2.5 uM, 48 hours, fold change in LMP1 transcript vs vehicle.

In the case of `COc1ccc2cc([C@H](C)C(=O)O)ccc2c1` [Naproxen], the fold induction at 2.5 µM under setting [1] was 0.62, the fold induction at 2.5 µM under setting [2] came out at 0.69 and the fold induction at 2.5 µM under setting [3] turned out to be 0.56.
In the same order, the values of `OC(CNCC(O)C1CCc2cc(F)ccc2O1)C1CCc2cc(F)ccc2O1` (stereo not drawn) [Nebivolol] are 1.16, 0.83 and 1.49.
Consider `CN1C(=O)C(Cc2c[nH]c3ccccc23)NC1=S` (stereo not drawn) [Necrostatin-1], for which the “Average LMP1 Fold Increase” value under setting [4] was 1.08. In addition, under setting [5], the “Replicate 1-LMP1 Fold Increase” value is on record as 0.99 and the “Replicate 2-LMP1 Fold Increase” value came out at 1.17.
In the case of `Cc1cn(-c2cc(NC(=O)c3ccc(C)c(Nc4nccc(-c5cccnc5)n4)c3)cc(C(F)(F)F)c2)cn1` [Nilotinib (AMN-107)], the “Average LMP1 Fold Increase” value under setting [4] came out at 0.27. Also, under setting [5], the “Replicate 1-LMP1 Fold Increase” value was found to be 0.20 and the “Replicate 2-LMP1 Fold Increase” value came out at 0.33.
Regarding `COC(=O)C1=C(C#N)NC(C)=C(C(=O)OC(C)C)C1c1cccc([N+](=O)[O-])c1` (stereo not drawn) [Nilvadipine], the fold induction at 2.5 µM turned out to be 0.72 under setting [1], 0.96 under setting [2] and 0.47 under setting [3].
In the same order, the values of `Cc1c(Cc2ccc3ccccc3n2)c2cc(F)ccc2n1CC(=O)O` [OC000459] are 0.56, 0.64 and 0.48.
In the case of `C#Cc1cccc(Nc2ncnc3cc(OCCOC)c(OCCO)cc23)c1` [OSI-420], the “Average LMP1 Fold Increase” value under setting [4] amounted to 0.66. Under setting [5], the “Replicate 1-LMP1 Fold Increase” value came to 0.84 and the “Replicate 2-LMP1 Fold Increase” value is 0.49.
The corresponding values for `C[C@]1(O)C[C@@H](c2nc(-c3ccc4ccc(-c5ccccc5)nc4c3)c3c(N)nccn32)C1` [OSI-906 (Linsitinib)] are 0.81, 0.68 and 0.94.
Take `NCC(=O)Nc1ccc(-n2nc(C(F)(F)F)cc2-c2ccc3c(ccc4ccccc43)c2)cc1` [OSU-03012 (AR-12)]: under setting [4], the “Average LMP1 Fold Increase” value is 0.95. Moreover, under setting [5], the “Replicate 1-LMP1 Fold Increase” value is 0.79 and the “Replicate 2-LMP1 Fold Increase” value is given as 1.12.
Consider `Cc1sc2c(c1C)C(c1ccc(Cl)cc1)=N[C@@H](CC(=O)Nc1ccc(O)cc1)c1nnc(C)n1-2` [OTX015], for which the fold induction at 2.5 µM under setting [1] is 0.63, the fold induction at 2.5 µM under setting [2] worked out at 0.14 and the fold induction at 2.5 µM under setting [3] turned out to be 1.12.
Turning to `COC1=CC(c2cc3ccccc3[nH]2)=N/C1=C\c1[nH]c(C)cc1C` [Obatoclax], the fold induction at 1 µM by setting is: (read-out: Average LMP1 Fold Increase, Kem I cells, 1 uM, 48 hours, average of replicates 1 and 2) 13.7; (read-out: Replicate 1-LMP1 Fold Increase, Kem I cells, 1 uM, 48 hours, fold change in LMP1 transcript vs vehicle) 24.3; (read-out: Replicate 2-LMP1 Fold Increase, Kem I cells, 1 uM, 48 hours, fold change in LMP1 transcript vs vehicle) 3.03.
As to `CC(C)(F)C[C@H](N[C@@H](c1ccc(-c2ccc(S(C)(=O)=O)cc2)cc1)C(F)(F)F)C(=O)NC1(C#N)CC1` [Odanacatib (MK-0822)], under setting [4], the “Average LMP1 Fold Increase” value came to 0.56. In addition, under setting [5], the “Replicate 1-LMP1 Fold Increase” value is recorded as 0.58 and the “Replicate 2-LMP1 Fold Increase” value was 0.54.
In the same order, the values of `CC[C@@H]1/C=C/C=C/C[C@H](C)[C@H](O)[C@](C)(O)C(=O)[C@H](C)[C@@H](O)[C@H](C)C(=O)[C@H](C)[C@@H](O)[C@H](C)/C=C/C(=O)O[C@H]2[C@@H](C)[C@@H](CC1)O[C@@]1(CC[C@@H](C)[C@@H](C[C@H](C)O)O1)[C@@H]2C` [Oligomycin A] are 1.40, 1.03 and 1.76.
The corresponding values for `CCc1c(C(=O)NCCc2ccc(N3CCCCC3)cc2)[nH]c2ccc(Cl)cc12` [Org 27569] are 0.51, 0.49 and 0.53.
For the molecule `C[C@@H]1O[C@@H](O[C@H]2C[C@@H](O)[C@]3(CO)[C@H]4[C@H](O)C[C@]5(C)[C@@H](C6=CC(=O)OC6)CC[C@]5(O)[C@@H]4CC[C@]3(O)C2)[C@H](O)[C@H](O)[C@H]1O` [Ouabain], the fold induction at 2.5 µM came out at 92.1 under setting [1], 22.8 under setting [2] and 161 under setting [3].
Regarding `NC(=O)N1c2ccccc2CC(=O)c2ccccc21` [Oxcarbazepine], the fold induction at 2.5 µM is, setting by setting: under setting [1], 0.46; under setting [2], 0.54; under setting [3], 0.38.
In the same order, the values of `Cc1cc(C(C)(C)C)c(O)c(C)c1CC1=NCCN1` [Oxymetazoline HCl] are 0.66, 0.6 and 0.72.
With `O=C(O)/C=C/c1ccc(Cn2ccnc2)cc1` [Ozagrel HCl], the “Average LMP1 Fold Increase” value under setting [4] stood at 0.79. In addition, under setting [5], the “Replicate 1-LMP1 Fold Increase” value amounted to 0.85 and the “Replicate 2-LMP1 Fold Increase” value is reported as 0.72.
For the molecule `O=C(O)/C=C/c1ccc(Cn2ccnc2)cc1` [Ozagrel], the “Replicate 2-LMP1 Fold Increase” value under setting [5] amounted to 1.55. Besides, the fold induction at 2.5 µM under setting [1] amounted to 1.41 and the fold induction at 2.5 µM under setting [2] came out at 1.27.
On to `CC(=O)c1cc([N+](=O)[O-])c(Sc2ccc(F)cc2F)s1` [P22077], for which the “Average LMP1 Fold Increase” value under setting [4] came out at 0.25. Under setting [5], the “Replicate 1-LMP1 Fold Increase” value turned out to be 0.20 and the “Replicate 2-LMP1 Fold Increase” value is recorded as 0.29.
The corresponding values for `C=CCc1cccc(/C=N/NC(=O)CN2CCN(Cc3ccccc3)CC2)c1O` [PAC-1] are 0.78, 0.78 and 0.78.
In the same order, the values of `O=C(NOCC1CC1)c1ccc(F)c(F)c1Nc1ccc(I)cc1Cl` [PD184352 (CI-1040)] are 0.66, 0.65 and 0.66.
Turning to `O=C(NOC[C@H](O)CO)c1ccc(F)c(F)c1Nc1ccc(I)cc1F` [PD0325901], the fold induction at 2.5 µM by setting is: under setting [1], 0.47; under setting [2], 0.68; under setting [3], 0.27.
For `O=C(Nc1cccnc1)N1CCC(Cc2cccc(Oc3ccc(C(F)(F)F)cn3)c2)CC1` [PF-3845], under setting [4], the “Average LMP1 Fold Increase” value was 0.32. Under setting [5], the “Replicate 1-LMP1 Fold Increase” value stood at 0.16 and the “Replicate 2-LMP1 Fold Increase” value is on record as 0.48.
Take `CN(c1ncccc1CNc1nc(Nc2ccc3c(c2)CC(=O)N3)ncc1C(F)(F)F)S(C)(=O)=O` [PF-562271]: the “Average LMP1 Fold Increase” value under setting [4] was found to be 0.50. Further, under setting [5], the “Replicate 1-LMP1 Fold Increase” value worked out at 0.81 and the “Replicate 2-LMP1 Fold Increase” value is listed as 0.19.
`CS(=O)(=O)c1cccc(CNc2nc(Nc3ccc4c(c3)CCC(=O)N4)ncc2C(F)(F)F)c1` [PF-573228]: the “Average LMP1 Fold Increase” value under setting [4] amounted to 0.66. Moreover, under setting [5], the “Replicate 1-LMP1 Fold Increase” value amounted to 0.87 and the “Replicate 2-LMP1 Fold Increase” value turned out to be 0.45.
The corresponding values for `OCCn1cc(-c2cnc3nnn(Cc4ccc5ncccc5c4)c3n2)cn1` [PF-04217903] are 1.03, 0.96 and 1.11.
With `CCc1cncnc1N1CCN(Cc2nc3ccc(C(F)(F)F)cc3[nH]2)CC1` [PF-4708671], the “Average LMP1 Fold Increase” value under setting [4] was 0.74. Besides, under setting [5], the “Replicate 1-LMP1 Fold Increase” value is on record as 1.30 and the “Replicate 2-LMP1 Fold Increase” value worked out at 0.18.
In the same order, the values of `Cc1cnc(-c2cc(N3CCN(C(=O)CCS(C)(=O)=O)CC3)ncc2Cl)c(C)c1` [PF-5274857] are 0.87, 1.12 and 0.62.
As for `COc1ccccc1S(=O)(=O)Nc1ccc2c(c1)CN(C)C(=O)N2` [PFI-1 (PF-6405761)], the “Average LMP1 Fold Increase” value under setting [4] was 0.78. Moreover, under setting [5], the “Replicate 1-LMP1 Fold Increase” value is 0.42 and the “Replicate 2-LMP1 Fold Increase” value was 1.15.
As for `Cc1[nH]c(/C=C2\C(=O)Nc3ccc(S(=O)(=O)Cc4c(Cl)cccc4Cl)cc32)c(C)c1C(=O)N1CCC[C@@H]1CN1CCCC1` [PHA-665752], the fold induction at 2.5 µM is, setting by setting: under setting [1], 0.69; under setting [2], 0.55; under setting [3], 0.84.
Consider `CC(C)CC(=O)Nc1[nH]nc2c1CN(C(=O)C1CCN(C)CC1)C2(C)C` [PHA-793887], for which the fold induction at 2.5 µM is 2.82 under setting [1], 0.58 under setting [2] and 5.05 under setting [3].
With `COc1cc(OC)c(NC(=O)Nc2cc(C)on2)cc1Cl` [PNU-120596], the “Average LMP1 Fold Increase” value under setting [4] is 0.30. In addition, under setting [5], the “Replicate 1-LMP1 Fold Increase” value is recorded as 0.17 and the “Replicate 2-LMP1 Fold Increase” value is 0.44.
The corresponding values for `CC(C)(C)n1nc(-c2ccc(Cl)cc2)c2c(N)ncnc21` [PP2] are 1.01, 0.73 and 1.28.
The corresponding values for `N#CSc1cc(SC#N)c(N)nc1N` [PR-619] are 0.31, 0.23 and 0.39.
Consider `Cl.NC(=O)c1cnc(N[C@@H]2CCCC[C@@H]2N)nc1Nc1cccc(-n2nccn2)c1` [PRT062607(P505-15, BIIB057) HCl], for which the “Average LMP1 Fold Increase” value under setting [4] was 0.54. In addition, under setting [5], the “Replicate 1-LMP1 Fold Increase” value came to 0.25 and the “Replicate 2-LMP1 Fold Increase” value is reported as 0.83.
With `COc1cc(Br)c(Nc2nc(-c3c(C)nc4ncccn34)cs2)c(Br)c1` [PTC-209], the “Average LMP1 Fold Increase” value stood at 0.90, the “Replicate 1-LMP1 Fold Increase” value came to 0.34 and the “Replicate 2-LMP1 Fold Increase” value came out at 1.46.

(Values after patent US20230053688A1, “METHODS TO ALTER LATENCY IN EBV+ MALIGNANCIES” (Cornell University, priority 2020, published 2023).)
